We go through one molecule from US4250170A, “Antibacterial agents Bu-2349A and B and method of using same” (Bristol-Myers Company, priority 1979, dated 1981).

The structures appear in SMILES notation. Values after ≈ are worked out from the molar mass of the structure shown. Some results are limits rather than exact numbers.

Series [1] deals with Sphaerophorus necrophorus (Sn-1). The experiment in a line: MIC against anaerobic bacteria. As to conditions: Fusobacterium necrophorum, 18 h; Table 4; GAM Medium, pH 7. The format is cell-based.
Series [2] deals with Serratia marcescens (Sm-2). The experiment in a line: MIC, two-fold agar dilution. Format: cell-based. As to conditions: 18 h, Table 3, Mueller-Hinton agar, 10^-4 dilution.
Series [3] relates to Bacteroides fragilis (Bf-7). The experiment in a line: MIC against anaerobic bacteria. The format is cell-based. As to conditions: 18 h, Table 4, GAM Medium, pH 7.
Series [4] concerns Staphylococcus aureus (Sa-77), ANT(4'). The experiment in a line: MIC, two-fold agar dilution. Format: cell-based. As to conditions: 18 h.
Another series deals with K. pneumoniae A9977. Description: experimental infections in mice. The format is in vivo. As to conditions: Klebsiella pneumoniae, A9977, 120 h, im, 100 X LD50 ip challenge, 5 days, read-out: PD50 (median protective dose). The procedure: (§1) The in vivo antibacterial activity of Bu-2349A was determined by experimental infections in mice. Mice were challenged via the intraperitoneal route with a 100 X LD50 dose of the pathogens in a 5% suspension of hog gastric mucin (American Laboratories, Omaha, Neb.). Bu-2349A was administered by the intramuscular route immediately after the bacterial challenge.

In a further series the test system is P. vulgaris A9436. Description: experimental infections in mice. The format is in vivo. As to conditions: Proteus vulgaris, A9436, 120 h, im, 100 X LD50 ip challenge, 5 days, read-out: PD50 (median protective dose). The procedure:
as §1

A further series concerns P. mirabilis A9554. Description: experimental infections in mice. Format: in vivo. As to conditions: Proteus mirabilis, A9554, 120 h, im, 100 X LD50 ip challenge, 5 days, read-out: PD50 (median protective dose). The procedure: as §1
The next series concerns S. aureus Smith. The experiment in a line: experimental infections in mice. As to conditions: Staphylococcus aureus, 120 h, im, 100 X LD50 ip challenge, 5 days, read-out: PD50 (median protective dose). Format: in vivo. The procedure:
as §1

The next series deals with S. pneumoniae A20759. The experiment in a line: experimental infections in mice. The format is in vivo. As to conditions: im. The procedure: as §1
For another series, the system named is E. coli Juhl. Description: experimental infections in mice. Format: in vivo. As to conditions: Escherichia coli, 120 h, im, 100 X LD50 ip challenge, 5 days, read-out: PD50 (median protective dose). The procedure: as §1
Series [5] has as its system Mycobacterium phlei D88 (Mp-1). Description: MIC, two-fold agar dilution. Format: cell-based. As to conditions: Mycolicibacterium phlei, 18 h; Table 3; Mueller-Hinton agar, 10^-4 dilution. (Agar dilution tests growth on a series of plates holding different concentrations.)
A short description of another series: acute LD50 in mice. As to conditions: mouse, in vivo.
Series [6] has as its system Escherichia coli NIHJ (Ec-1). Description: MIC, two-fold agar dilution. The format is cell-based. As to conditions: 18 h, Table 3, Mueller-Hinton agar, 10^-4 dilution.
The subject of series [7] is Escherichia coli (Ec-62), AAC(3)- 1. Description: MIC, two-fold agar dilution. Format: cell-based. As to conditions: 18 h, Table 3, Mueller-Hinton agar, 10^-4 dilution, enzyme AAC(3)- 1.
Series [8] has as its system Peptostreptococcus anaerobium B43 (Pb-1). Description: MIC against anaerobic bacteria. The format is cell-based. As to conditions: 18 h, Table 4, GAM Medium, pH 7.
Series [9] deals with Mycobacterium ranae ATCC 110 (Mr-1). The experiment in a line: MIC, two-fold agar dilution. Format: cell-based. As to conditions: ATCC110, 18 h, Table 3, Mueller-Hinton agar, 10^-4 dilution.
The subject of series [10] is Enterobacter cloacae (El-35), AAC(3)-3. The experiment in a line: MIC, two-fold agar dilution. As to conditions: 18 h, Table 3, Mueller-Hinton agar, 10^-4 dilution, enzyme AAC(3)-3. Format: cell-based.
Another series relates to Proteus rettgeri (Pr-2). The experiment in a line: MIC, two-fold agar dilution. Format: cell-based. As to conditions: Providencia rettgeri, 18 h; Table 3; Mueller-Hinton agar, 10^-4 dilution.
Series [11] concerns Escherichia coli (Ec-49), APH(3')-2. The experiment in a line: MIC, two-fold agar dilution. The format is cell-based. As to conditions: 18 h, Table 3, Mueller-Hinton agar, 10^-4 dilution, enzyme APH(3')-2.
Series [12] deals with Streptococcus pyogenes (Sp-3). The experiment in a line: MIC, two-fold agar dilution. The format is cell-based. As to conditions: 18 h, Table 3, GC agar, 10^-2 dilution.
The test system of series [13] is Streptococcus viridans (Sv-1). Description: MIC, two-fold agar dilution. The format is cell-based. As to conditions: 18 h, Table 3, GC agar, 10^-2 dilution.
The subject of series [14] is S. aureus, E. coli, K. pneumoniae, P. vulgaris and P. mirabilis. The experiment in a line: experimental infections in mice, overall statement. Format: in vivo. As to conditions: im. The procedure: as §1

With `C=C1OC(OC2C(CO)OC(Oc3ccc(C(=O)NCCCNCCCCNCCCCN)cc3)C2O)C(O)C(OC2OC(CO)C(OC3OC(C)C(N)C(O)C3NC(=O)C(C)N)C(O)C2O)C1O` (stereo not drawn) [Bu-2349A], the MIC (as a rule, the smallest concentration in the dilution series that meets the test's criterion for growth inhibition) in [1] was over 100 µg/mL; in series [2], 25 µg/mL (≈ 25.2 µM); in series [3] it was over 100 µg/mL; in [4], 12.5 µg/mL (≈ 12.6 µM); in series [5], 3.1 µg/mL (≈ 3.13 µM); in series [6], 1.6 µg/mL (≈ 1.62 µM). Further, the MIC was 1.6 µg/mL (≈ 1.62 µM) in series [7]; over 100 µg/mL in series [8]; 3.1 µg/mL (≈ 3.13 µM) in series [9]; 3.1 µg/mL (≈ 3.13 µM) in series [10]; 0.8 µg/mL (≈ 0.808 µM) in the series with Proteus rettgeri (Pr-2); 1.6 µg/mL (≈ 1.62 µM) in series [11]. Further, the MIC in series [12] and in series [13] was over 100 µg/mL in each case. The ED50 is 7.2 mg/kg with K. pneumoniae A9977; 12 mg/kg in the series on P. vulgaris A9436; 16 mg/kg in the series with P. mirabilis A9554; 3.2 mg/kg in the series on S. aureus Smith; over 100 mg/kg with S. pneumoniae A20759 (Streptococcus pneumoniae, A20759, 120 h, 100 X LD50 ip challenge, 5 days, read-out: PD50 (median protective dose)); 5.4 mg/kg in the series on E. coli Juhl. In addition, in the series on S. pneumoniae A20759, the “activity against the S. pneumoniae infection” value was “inactive”. The LD50 – broadly, the dose at which mortality reaches 50% – in the series “acute LD50 in mice” (im, intramuscular) was 315 mg/kg; in the series “acute LD50 in mice” (intravenous), 35 mg/kg. For the same molecule, in series [14], the “protection against systemic lethal infections” value is on record as “good protection”.
